In patent publication US20110053916A1 (Vertex Pharmaceuticals Incorporated, priority 2009, published 2011):
Structures can show the parent of a compound that is named as a salt. Where two headings read alike, the source gives them in different places.

Tests used:
PknB = target: T1, PknB (Mycobacterium tuberculosis, UniProt P9WI81); assay: biochemical; design: species or system M. tuberculosis; conditions: for Ki: read-out: Ki Values
T1 construct: made in house

[1] = tested on: Mycobacterium tuberculosis H37Ra; assay: Mycobacterium tuberculosis growth inhibition assay (microtiter dilution, resazurin reduction); assay type: cell-based; conditions: 7H9 broth, 9 days + 24 h resazurin, lowest concentration inhibiting resazurin reduction by >70%, several symbols in a cell = repeat determinations
Procedure: Compounds were screened for their ability to inhibit the growth of Mycobacterium tuberculosis H37Ra using a standard microtiter dilution method with reduction of the dye resazurin as an indicator of growth. The growth assay was carried out in standard Mycobacterium liquid growth medium, 7H9Broth (BD Biosciences, Franklin Lakes, N.J.) supplemented with 10% ADC enrichment (BD Biosciences, Franklin Lakes, N.J.). The medium was inoculate with ˜1×10^6 cells/milliliter of Mycobacterium tuberculosis H37Ra grown on a the surface of a growth medium solid medium (7H11 agar [BD Biosciences, Franklin Lakes, N.J.] supplemented with 10% OADC enrichment [BD Biosciences, Franklin Lakes, N.J.]).
Two-fold serial dilutions (either 7 or 11-step series) of test compounds in DMSO were dispensed into 96-well assay plates (sterile, black sided, clear bottom wells) in a volume of 1 microliter. One microliter of DMSO was dispensed into a control well at the end of each series. One-hundred microliters of the bacterial cell suspension in growth medium was dispensed into each test well containing a DSMO solution of compound. The assay plates were covered with a fitted lid and incubated at 37° C. in a humidified chamber for 9 days. On the ninth day 30 microliters of a 0.01% solution of resazurin (Sigma Chemical Co., St. Louis, Mo.) in distilled water was added to each well and the baseline fluorescence of resazurin was determined by measuring well fluorescence at an excitation wavelength of 492 nm and an emission wavelength of 595 nm on a Spectrafluor Plus (Tecan, Durham, N.C.) instrument. The assay plates were returned to the incubation chamber for 24 hours. After 24 hours, the fluorescence of the wells (resulting from the reduction of resazurin dye) was measured at an excitation wavelength of 492 nm and an emission wavelength of 595 nm on the Spectrafluor Plus instrument. The minimum inhibitory concentration (MIC) was called as the lowest concentration of compound that inhibited the reduction of resazurin by >70%, as compared to the DMSO (untreated) control wells. MIC values are represented as the following values: • A* <1.6 μM • A 1.6 μM<12.5 μM • B** 12.5 μM-25.0 μM • B* 25.0 μM-50.0 μM • B 50.0 μM-100.0 μM • C >100.0 μM

[2] = 3 nM PknB, 6 uM GarA, 3 μM ATP, 30 min, competitive tight-binding fit, several symbols in a cell = repeat determinations

T1 sequence (P9WI81 whole entry): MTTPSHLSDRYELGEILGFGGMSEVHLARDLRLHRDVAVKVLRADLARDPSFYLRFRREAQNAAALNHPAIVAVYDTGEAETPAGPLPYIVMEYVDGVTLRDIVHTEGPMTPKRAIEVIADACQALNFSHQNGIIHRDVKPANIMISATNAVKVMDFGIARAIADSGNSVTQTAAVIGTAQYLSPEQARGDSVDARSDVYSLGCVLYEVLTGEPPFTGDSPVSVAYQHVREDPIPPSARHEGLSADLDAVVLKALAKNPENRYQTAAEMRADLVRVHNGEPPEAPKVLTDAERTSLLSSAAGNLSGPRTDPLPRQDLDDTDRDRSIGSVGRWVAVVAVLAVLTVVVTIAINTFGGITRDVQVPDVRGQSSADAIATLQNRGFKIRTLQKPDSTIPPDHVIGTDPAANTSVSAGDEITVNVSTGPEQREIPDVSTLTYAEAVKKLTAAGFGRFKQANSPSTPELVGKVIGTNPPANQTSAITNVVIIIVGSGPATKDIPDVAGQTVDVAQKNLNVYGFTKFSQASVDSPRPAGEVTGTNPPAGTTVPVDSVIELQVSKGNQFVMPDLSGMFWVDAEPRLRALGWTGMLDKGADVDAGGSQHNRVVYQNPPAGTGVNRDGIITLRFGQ

C#Cc1cnc(-c2ccc(S(=O)(=O)NC(C)(C)C)s2)nc1Nc1cc(C2CC2)n[nH]1 [Compound 115, N-tert-butyl-5-(4-(5-cyclopropyl-1H-pyrazol-3-ylamino)-5-ethynylpyrimidin-2-yl)thiophene-2-sulfonamide]
Ki (PknB; [2]): 10 to 50 nM | MIC values [1]: B++, B+

CNS(=O)(=O)c1ccc(-c2ncc(Cl)c(Nc3cc(C4CC4)n[nH]3)n2)cc1 [Compound 117, 4-[5-chloro-4-[(5-cyclopropyl-2H-pyrazol-3-yl)amino]-pyrimidin-2-yl]-N-methyl-benzenesulfonamide]
Ki Values (PknB; [2]): A*, A | MIC values [1]: A, C, C

OCc1cnc(-c2ccccc2)nc1Nc1cc(C2CC2)n[nH]1 [Compound 123, (4-(5-cyclopropyl-1H-pyrazol-3-ylamino)-2-phenylpyrimidin-5-yl)methanol]
Ki (PknB; [2]): 100 to 500 nM | MIC values [1]: B, C

NS(=O)(=O)c1cccc(-c2ncc(CO)c(Nc3cc(C4CC4)n[nH]3)n2)c1 [Compound 124, 3-(4-(5-cyclopropyl-1H-pyrazol-3-ylamino)-5-(hydroxymethyl)pyrimidin-2-yl)benzenesulfonamide]
Ki (PknB; [2]): 50 to 100 nM | MIC values [1]: A, B++

Oc1ccc(-c2ncc(Cl)c(Nc3cc(C4CC4)[nH]n3)n2)cc1 [Compound 126, 4-[5-chloro-4-[(5-cyclopropyl-1H-pyrazol-3-yl)amino]-pyrimidin-2-yl]phenol]
Ki (PknB; [2]): 10 to 50 nM | MIC values [1]: B++, B+

C#Cc1cnc(-c2ccc(Cl)c(C(N)=O)c2)nc1Nc1cc(C2CC2)n[nH]1 [Compound 128, 2-chloro-5-(4-(3-cyclopropyl-1H-pyrazol-5-ylamino)-5-ethynylpyrimidin-2-yl)benzamide]
Ki (PknB; [2]): 10 to 50 nM | MIC values [1]: B+, C

CN(CCO)S(=O)(=O)c1ccc(-c2ncc(Cl)c(Nc3cc(C4CC4)[nH]n3)n2)s1 [Compound 129, 5-(5-Chloro-4-(5-cyclopropyl-1H-pyrazol-3-ylamino)pyrimidin-2-yl)-N-(2-hydroxyethyl)-N-methylthiophene-2-sulfonamide]
Ki (PknB; [2]): 1 to 10 nM | MIC values [1]: B++

CC(=O)NCc1ccc(-c2ncc(Cl)c(Nc3cc(C4CC4)n[nH]3)n2)s1 [Compound 136, N-((5-(5-chloro-4-(3-cyclopropyl-1H-pyrazol-5-ylamino)pyrimidin-2-yl)thiophen-2-yl)methyl)acetamide]
Ki (PknB; [2]): 10 to 50 nM | MIC values [1]: B+

NCCNS(=O)(=O)c1cccc(-c2ncc(Cl)c(Nc3cc(C4CC4)[nH]n3)n2)c1 [Compound 138, N-(2-aminoethyl)-3-[5-chloro-4-[(5-cyclopropyl-1H-pyrazol-3-yl)amino]-pyrimidin-2-yl]-benzenesulfonamide]
Ki (PknB; [2]): 10 to 50 nM | MIC values [1]: B, C

O=S(=O)(NC1CC1)c1ccc(-c2ncc(Cl)c(Nc3cc(C4CC4)[nH]n3)n2)s1 [Compound 139, 5-[5-chloro-4-[(5-cyclopropyl-1H-pyrazol-3-yl)amino]-pyrimidin-2-yl]-N-cyclopropyl-thiophene-2-sulfonamide]
Ki (PknB; [2]): 10 to 50 nM | MIC values [1]: B+, C

NCc1ccc(-c2ncc(Cl)c(Nc3cc(C4CC4)n[nH]3)n2)s1 [Compound 141, 2-(5-(aminomethyl)thiophen-2-yl)-5-chloro-N-(3-cyclopropyl-1H-pyrazol-5-yl)pyrimidin-4-amine hydrochloride]
Ki Values (PknB): A, A, B** | MIC values [1]: B, C, C

Cc1cnc(-c2ccc([C@@H](C)O)s2)nc1Nc1cc(C2CC2)[nH]n1 [Compound 145, (R)-1-(5-(4-(5-cyclopropyl-1H-pyrazol-3-ylamino)-5-methylpyrimidin-2-yl)thiophen-2-yl)ethanol]
Ki (PknB; [2]): 50 to 100 nM | MIC values [1]: B++, B+

Cc1cnc(-c2ccc([C@H](C)O)s2)nc1Nc1cc(C2CC2)[nH]n1 [Compound 146, (S)-1-(5-(4-(5-cyclopropyl-1H-pyrazol-3-ylamino)-5-methylpyrimidin-2-yl)thiophen-2-yl)ethanol]
Ki Values (PknB; [2]): A*, A** | MIC values [1]: B++
